# Laboratory results from PMC11627005 (Febs Letters, 2024).
# Tests used:
# Format in all cases: biochemical
# [1] = molecular target: E. coli respiratory complex I (proton-pumping NADH:ubiquinone oxidoreductase, NuoA to NuoN) (Escherichia coli, UniProt P0AFC7+P0AFD4+P33599, P33599:D325N)
# [2] = molecular target: E. coli respiratory complex I (proton-pumping NADH:ubiquinone oxidoreductase, NuoA to NuoN) (Escherichia coli, UniProt P0AFC7+P0AFD4+P33599, P33599:D325Q)
# [3] = molecular target: E. coli respiratory complex I (proton-pumping NADH:ubiquinone oxidoreductase, NuoA to NuoN) (Escherichia coli, UniProt P0AFC7+P0AFD4+P33599, P33599:D325E)
# [4] = molecular target: E. coli respiratory complex I (proton-pumping NADH:ubiquinone oxidoreductase, NuoA to NuoN) (Escherichia coli, UniProt P0AFC7+P0AFD4+P33599)
# [5] = molecular target: E. coli respiratory complex I (proton-pumping NADH:ubiquinone oxidoreductase, NuoA to NuoN) (Escherichia coli, UniProt P0AFC7+P0AFD4+P33599, P33599:D325A)
smiles,measurement,setting,value
C/C=C(\C)[C@H](O)[C@H](C)/C=C(C)/C=C/C/C(C)=C/Cc1nc(OC)c(OC)c(O)c1C [piericidin A],IC50,[1],17.4 ± 0.6 µM
same,IC50,[2],16.9 ± 1.2 µM
same,IC50,[3],6.2 ± 0.5 µM
same,IC50,[4],3.5 ± 0.2 µM
same,IC50,[5],9.3 ± 0.8 µM
